{"source": "patent US10865203B2", "about": "“Ligands selective to alpha 6 subunit-containing GABAA receptors and their methods of use” (UWM Research Foundation, Inc., priority 2015, dated 2020)", "key": {"[1]": {"assay": "Half-life in liver microsomes (Example 4)", "assay_type": "in vitro ADME", "settings": "rat and human liver microsomes, species of the value not stated", "excerpt": "Metabolic pathways that may disrupt the activity of compounds with aryl methoxy groups were investigated."}, "[2]": {"test_system": "mice, methamphetamine-induced hyperlocomotion", "assay": "Locomotor activity, methamphetamine-induced hyperlocomotion", "assay_type": "in vivo, mouse", "procedure": "The locomotor activity of the mouse was measured by its interruptions of infra-red photobeans in a locomotor cage (42 cm×42 cm×36 cm) in the photobeam activity system (San Diego Instruments, San Diego, Calif.). After acclimation, the mouse was treated with ci extract or vehicle for 15 min, followed by ma (2 mg/kg). Then, the mouse was gently placed in the locomotor cage and the horizontal and vertical interruptions were counted every 5 min for 60 min. Total locomotor activity was the sum of interruptions within 60 min.\nMice were anaesthetized with sodium pentobarbital (60 mg/kg i.p.) And placed in a stereotaxic frame keeping the bregma-lambda axis horizontal. After shaving the hair and exposing the skull surface, the mouse was implanted with two 24-gauge stainless-steel guide cannulas, respectively, directing towards the right and left lateral cerebella (−6.4 mm caudal, ±1.5 mm lateral, −1.0 mm ventral from bregma) according to the stereotaxic coordinate of the mouse (Paxions 2001). The cannulas were fixed on the top of the skull by stainless steel screws and dental cement. The animal was allowed to fully recover after surgery for at least one week before the behavioral test was conducted.\nOn the day for behavioral tests, a 30-gauge injection cannula connected to a 1 μL hamilton syringe was inserted into the guide cannula for drug injection. The drug solution of 0.5 μL in each side was slowly infused with a microinfusion pump (kds311, kd scientific inc.) For 30 s with a further “hold” time for 60 s. The microinjection site was confirmed by the positive staining of trypan blue, which was injected through the cannula after behavioral tests. Data from mice with offsite injections were discarded."}, "mice, motor coordination": {"test_system": "mice, motor coordination", "assay": "Rotarod test", "assay_type": "in vivo, mouse", "settings": "3 mg/kg, 15 min after treatment", "procedure": "The motor coordinating activity of the mouse was measured by its performance on a rotarod in the sdi rotor-rodtm system (San Diego Instruments, San Diego, Calif.). The mouse was trained four times a day for 3 days until it could stay on the rotating drum at a rotating speed of 24 rpm for at least 120 sec. Then, the mouse was subjecting to the rotarod test at the rotating speed accelerating gradually from 0 to 30 rpm, and the latency to fall from the rotating drum was recorded. The cut-off time for the latency to fall was 300 sec. Animals were treated with the tested drug or vehicle for 15 min before receiving the test."}, "[3]": {"test_system": "mice, forelimb grip strength", "assay": "Grip strength test", "assay_type": "in vivo, mouse", "settings": "3 mg/kg, 15 min after treatment", "procedure": "Forelimb grip strength was measured by the grip force of forepaws of the mouse using the sdi grip strength system (San Diego Instrument, San Diego, Calif.). The grip strength was recorded by the maximum of three permissible readings (in grams). The test was conducted every 2 min for three times, and the averaged grip strength was recorded. Animals were treated with the tested drug or vehicle for 15 min before the test."}, "mice, step-down latency": {"test_system": "mice, step-down latency", "assay": "Sedation assessment", "assay_type": "in vivo, mouse", "settings": "3 mg/kg i.p.", "procedure": "The degree of sedation was measured by the latency for a mouse to completely step down from a slightly (3 cm) raised plastic platform (11×8 cm) by reference to a previous report (Horan et al. 1991). The mouse was placed on the platform 15 min after receiving i.p. Injection of the tested drug. The latency (in sec) for the mouse to step down the platform with all four paws was recorded. The baseline latency of each mouse before drug treatment was measured and, if longer than 15 sec, the mouse was discarded from the study. A cut-off time of 60 sec was taken as the maximal sedative effect. The percentage of sedation was calculated by the formula: sedation %=(test latency−baseline latency)/(60−baseline latency)×100%."}, "mice, elevated plus maze": {"test_system": "mice, elevated plus maze", "assay": "Elevated plus maze (EPM) test", "assay_type": "in vivo, mouse", "settings": "3 mg/kg or 10 mg/kg i.p., 10 min before the tests", "procedure": "The epm test was conducted in a plexiglas maze apparatus (San Diego Instruments, San Diego, Calif.), consisting of a central platform (5×5 cm) with four arms (30×5 cm); two open and two closed arms with 25 cm-high sidewalls. The maze is elevated 38.5 cm from the room's floor. The mouse was placed at the central platform of the maze facing one of open arms and its behaviors in the maze were video-recorded and analyzed every 5 min-test session by the ethovision video tracking system (noldus information technology, wageningen, netherlands). The time spent for each mouse in the open or closed arm or the central platform as well as the distances traveled in the open or closed arm were measured. The degree of anxiety was accessed by the ratio of the time spent or the distance traveled in two open arms in a 5 min-test session."}, "IoN-CCl Wistar rats": {"test_system": "IoN-CCl Wistar rats", "assay": "IoN-CCl model, face grooming during body grooming", "assay_type": "in vivo, rat", "settings": "10 mg/kg i.p. daily; 10 min of recording", "procedure": "Chronic constriction injury (CCl) is a common neuropathic pain model. The unilateral ligature of the infraorbital nerve (IoN) in rats, as an animal model of peripheral neuropathic pain, and more specifically, trigeminal neuralgia and trigeminal neuropathy, was performed as described by Desuere and Hans (Deseure et al. J. Vis. Exp. 2015, 103, e53167). Wistar rats (46 in total) were randomly assigned to one of four experimental groups and then were behaviorally tested in a blinded manner. For studying the effects of subchronic treatment with the nanoemulsion formulation of DK-I-56-1 in IoN-CCl rats, DK-I-56-1 (10 mg/kg i.p.) or its vehicle (placebo nanoemulsion i.p.) were injected daily for 14 consecutive days after surgery. Sham-operated rats were treated in parallel. By a procedure slightly modified from Djordjevic et al. (Int. J. Pharm. 2015, 493, 40-54), biocompatible nanoemulsions were prepared by high pressure homogenization at 50° C. […] First, the response to the application of a graded series of three von Frey filaments onto ipsilateral vibrissal pad was measured on pre-operative days −3 and −1 and post-operative days 7, 14, 21, and 28. […] The other parameter, face grooming during body grooming, was manually assessed during 10 min of recording on pre-operative day −2 and post-operative days 2, 4, 8, and 15 (i.e. after 1, 3, 7, and 14 applications of treatment). […]"}, "male Wistar rats": {"test_system": "male Wistar rats", "assay": "Rotarod performance, pilot experiment", "assay_type": "in vivo, rat", "settings": "acute, dose range 10-55 mg/kg, 20 min after administration"}, "[4]": {"assay": "Pharmacokinetic study in mice, plasma and brain", "assay_type": "in vivo, mouse", "settings": "nanoemulsion", "method": "Five pharmacokinetic studies have been performed; four in male Wistar rats and one in male Swiss mice. […] At predetermined time intervals, i.e., 5, 20, 60, 180, and 720 min after dosing, the blood and brain samples of the rat were collected. […] At predetermined time intervals, i.e., 5, 20, 40, 120, and 360 min, the blood and brain samples of the mouse were collected."}}, "data": [{"compound": "COc1ccc(-n2nc3c4ccc(OC)cc4[nH]cc-3c2=O)cc1", "note": "[Compound 6, 7-Methoxy-2-(4-methoxyphenyl)-2,5-dihydro-3H-pyrazolo[4,3-c]quinolin-3-one]", "values": [{"measurement": "half-life", "setting": "[1]", "value": 2.92, "unit": "h"}, {"measurement": "effect of intra-cerebellum furosemide on the rescue of hyperlocomotion", "setting": "[2]; furosemide 10 nmol", "value": "significantly antagonized"}, {"measurement": "methamphetamine-induced hyperlocomotion", "setting": "[2]; mice, 3 mg/kg i.p., METH 2 mg/kg i.p., 60 min", "value": "significantly rescued"}, {"measurement": "spontaneous motor activity", "setting": "[2]; mice, 3 mg/kg i.p., saline instead of METH", "value": "did not affect"}, {"measurement": "motor coordination in the rotarod test", "setting": "mice, motor coordination", "value": "did not affect"}, {"measurement": "grip strength", "setting": "[3]", "value": "did not affect"}, {"measurement": "sedation", "setting": "mice, step-down latency", "value": "neither displayed any significant sedation"}, {"measurement": "anxiolytic activity", "setting": "mice, elevated plus maze", "value": "neither displayed any significant"}]}, {"compound": "[2H]C([2H])([2H])Oc1ccc(-n2nc3c4ccc(OC)cc4[nH]cc-3c2=O)cc1", "note": "[DK-I-56-1, 7-Methoxy-2-(4-methoxy-d3-phenyl)-2,5-dihydro-3H-pyrazolo[4,3-c]quinolin-3-one]", "values": [{"measurement": "face grooming during body grooming", "setting": "IoN-CCl Wistar rats", "value": "lack of sedation-like or motor-impairing influences"}, {"measurement": "rotarod performance", "setting": "male Wistar rats", "value": "did not impair"}, {"measurement": "total concentrations in mouse brain", "setting": "[4]; 10 mg/kg i.p.", "value": "submicromolar"}, {"measurement": "maximum concentration in mouse brain", "setting": "[4]; 30 mg/kg i.p.", "value": 7.5, "unit": "µmol/L"}]}]}
